Test results taken from patent publication US20200055839A1 (priority 2017, published 2020).

system: NL-RLuc virus; assay: Inhibition of HIV replication (NL-RLuc virus, luciferase readout in MT-2 cells); type: cell-based; settings: Human immunodeficiency virus 1, MT2, 120 h, MT-2 cells infected with NL-RLuc virus, 5 days of incubation, 10% FBS, at least 2 experiments
Outline: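 MT-2 cells infected with NL4-3-derived virus carrying Renilla luciferase in place of part of nef, grown 5 days with serial compound dilutions in RPMI 1640/10% FBS. Virus growth read as luciferase expression. EC50 from median effect equation, at least 2 experiments.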

Compound | EC50 [nM]
Cc1ncc(-c2ccc(OCc3ccccc3Cl)cn2)c(N2CCC(C)(C)CC2)c1[C@H](OC(C)(C)C)C(=O)O [Example 336, (2S)-2-(tert-butoxy)-2-{5-[(2-chlorophenyl)methoxy]-4′-(4,4-dimethylpiperidin-1-yl)-6′-methyl-[2,3′-bipyridine]-5′-yl}acetic acid] | 2
Cc1ncc(-c2ccc([C@@H](O)CC(C)C)nc2)c(N2CCC(C)(C)CC2)c1[C@H](OC(C)(C)C)C(=O)O [Example 432, (S)-2-tert-Butoxy-2-(4-(4,4-dimethylpiperidin-1-yl)-6′-((S)-1-hydroxy-3-methylbutyl)-6-methyl-3, 3′-bipyridin-5-yl)acetic acid] | 32
Cc1cccc(Cl)c1COc1ccc(-c2cnc(C)c([C@H](OC(C)(C)C)C(=O)O)c2N2CCC(C)(C)CC2)cn1 [Example 423, (S)-2-(tert-Butoxy)-2-(6′-((2-chloro-6-methylbenzyl)oxy)-4-(4,4-dimethylpiperidin-1-yl)-6-methyl-[3, 3′-bipyridin]-5-yl)acetic acid] | 8
Cc1ncc(-c2cnc(OCCc3c(Cl)cccc3Cl)c(F)c2)c(N2CCC(C)(C)CC2)c1[C@H](OC(C)(C)C)C(=O)O [Example 373, (2S)-2-(tert-butoxy)-2-{6′-[2-(2,6-dichlorophenyl)ethoxy]-4-(4,4-dimethylpiperidin-1-yl)-5′-fluoro-6-methyl-[3,3′-bipyridine]-5-yl}acetic acid] | 3
CC1(C)CCN(c2c(-c3ccc(CNc4ncnc5c4oc4ccccc45)c(F)c3)cnc(Cl)c2[C@H](OC(C)(C)C)C(=O)O)CC1 [Example 221, (S)-2-(5-(4-((Benzofuro[3,2-d]pyrimidin-4-ylamino)methyl)-3-fluorophenyl)-2-chloro-4-(4,4-dimethylpiperidin-1-yl)pyridin-3-yl)-2-(tert-butoxy)acetic acid] | 0.3
Cc1ncc(-c2ccc(F)cc2)c(N2CCC(C)(C)CC2)c1[C@H](OC(C)(C)C)C(=O)O [Example 135, (2S)-2-(tert-Butoxy)-2-[4-(4,4-dimethylpiperidin-1-yl)-5-(4-fluorophenyl)-2-methylpyridin-3-yl]acetic acid] | 3
CCC(C)(C)O[C@H](C(=O)O)c1c(C)ncc(-c2ccc(OCCc3ccc(F)cc3)cn2)c1N1CCC(C)(C)CC1 [Example 246, (S)-2-(4′-(4,4-Dimethylpiperidin-1-yl)-5-(4-fluorophenethoxy)-6′-methyl-[2, 3′-bipyridin]-5′-yl)-2-(tert-pentyloxy)acetic acid] | 0.4
COc1c(F)cc(-c2c(CNCC3CCOCC3)nc(Cl)c([C@H](OC(C)(C)C)C(=O)O)c2N2CCC(C)(C)CC2)cc1F [Example 203, (S)-2-(tert-Butoxy)-2-(2-chloro-5-(3,5-difluoro-4-methoxyphenyl)-4-(4,4-dimethylpiperidin-1-yl)-6-((((tetrahydro-2H-pyran-4-yl)methyl)amino)methyl)pyridin-3-yl)acetic acid] | 7
CN(Cc1nc(Cl)c([C@H](OC(C)(C)C)C(=O)O)c(N2CCC(C)(C)CC2)c1-c1ccc(OCCc2ccc(F)cc2)cc1)CC1CCOCC1 [Example 213, (S)-2-(tert-Butoxy)-2-(2-chloro-4-(4,4-dimethylpiperidin-1-yl)-5-(4-(4-fluorophenethoxy)phenyl)-6-((methyl((tetrahydro-2H-pyran-4-yl)methyl)amino)methyl)pyridin-3-yl)acetic acid] | 0.6
Cc1ncc(-c2ccc(OCc3ccc(Cl)cc3)cn2)c(N2CCC(C)(C)CC2)c1[C@H](OC(C)(C)C)C(=O)O [Example 338, (2S)-2-(tert-butoxy)-2-{5-[(4-chlorophenyl)methoxy]-4′-(4,4-dimethylpiperidin-1-yl)-6′-methyl-[2,3′-bipyridine]-5′-yl}acetic acid] | 1
CCCCCOc1ccc(-c2cnc(C)c([C@H](OC(C)(C)C)C(=O)O)c2N2CCC(C)(C)CC2)cn1 [Example 408, (S)-2-(tert-Butoxy)-2-(4-(4,4-dimethylpiperidin-1-yl)-6-methyl-6′-(pentyloxy)-[3, 3′-bipyridin]-5-yl)acetic acid] | 2
